In assay [1] the target is T1, CETP (Homo sapiens, UniProt P11597).
T1 sequence (P11597 18-493): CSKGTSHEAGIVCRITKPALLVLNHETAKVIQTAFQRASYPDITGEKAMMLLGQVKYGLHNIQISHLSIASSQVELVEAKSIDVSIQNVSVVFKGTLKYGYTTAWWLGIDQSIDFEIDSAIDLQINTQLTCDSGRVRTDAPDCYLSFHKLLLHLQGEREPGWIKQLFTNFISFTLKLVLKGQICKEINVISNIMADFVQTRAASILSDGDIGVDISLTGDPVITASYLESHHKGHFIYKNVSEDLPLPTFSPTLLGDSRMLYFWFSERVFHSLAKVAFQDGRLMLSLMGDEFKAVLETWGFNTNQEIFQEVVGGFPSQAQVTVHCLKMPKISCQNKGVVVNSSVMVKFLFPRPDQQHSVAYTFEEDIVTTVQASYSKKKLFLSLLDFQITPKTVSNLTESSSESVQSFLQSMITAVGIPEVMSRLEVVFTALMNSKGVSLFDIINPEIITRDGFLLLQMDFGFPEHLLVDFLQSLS
In words: Assay of CETP Inhibition using Purified Components (Reconstituted Buffer Assay). Format: biochemical. The arrangement: made in house; host or cells: CHO cells (serum-free conditioned medium). Conditions: transfer of [3H]CE from HDL to LDL. In a few lines: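 Purified human recombinant CETP from transfected CHO cells was incubated with [^3H]CE-labeled HDL donor and LDL acceptor in Tris pH 7.4/NaCl/EDTA/1% BSA buffer for 2 h at 37 °C. LDL was then precipitated with dextran sulfate/MgCl2, filtered, and counted by liquid scintillation to give IC50 for CE transfer.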

Assay [2] deals with T1, CETP. In words: Assay of CETP Inhibition in Human Plasma. Format: biochemical. The arrangement: Blood was obtained from healthy volunteers, recruited from the personnel of Monsanto Company; from tissue; host or cells: human EDTA plasma pool from healthy volunteers. Conditions: transfer of [3H]CE from HDL to VLDL and LDL. The protocol: Assay of CETP Inhibition in Human Plasma
Blood was obtained from healthy volunteers, recruited from the personnel of Monsanto Company, Saint Louis, Mo. Blood was collected in tubes containing EDTA (EDTA plasma pool). The EDTA human plasma pool, previously stored at −20° C., was thawed at room temperature and centrifuged for 5 minutes to remove any particulate matter. […] Equal volumes (396 μL) of the plasma containing the [^3H]CE-HDL were added by pipette into micro tubes (Titertube®, Bio-Rad laboratories, Hercules, Calif.). Inhibitor compounds, dissolved as 20-50 mM stock solutions in DMSO, were serially diluted in DMSO (or an alternative solvent in some cases, such as dimethylformamide or ethanol). Four μL of each of the serial dilutions of inhibitor compounds or DMSO alone were then added to each of the tubes containing plasma (396 μL). After mixing, triplicate aliquots (100 μL) from each plasma tube were then transferred to wells of 96-well round-bottomed polystyrene microtiter plates (Corning, Corning, N.Y.). Plates were sealed with plastic film and incubated at 37° C. for 4 hours. “Test” samples contained plasma with dilutions of inhibitor compounds. “Control” samples contained plasma with DMSO diluted to the same concentration as the test samples, but without inhibitor. “Blank” samples were prepared as “control” samples, but were left in the micro tubes at 4° C. for the 4 hour incubation and were then added to the microtiter wells at the end of the incubation period. VDL and LDL were precipitated by the addition of 10 μL of precipitating reagent (1% (w/v) dextran sulfate (Dextralip50)/0.5 M magnesium chloride, pH 7.4) to all wells. The wells were mixed on a plate mixer and then incubated at ambient temperature for 10 min. The plates were then centrifuged at 1000× g for 30 min at 10° C. The supernatants (50 μL) from each well were then transferred to Picoplate™ 96 plate wells (Packard, Meriden, Conn.) containing Microscint™-40 (Packard, Meriden, Conn.). The plates were heat-sealed (TopSeal™-P, Packard, Meriden, Conn.) according to the manufacturer's directions and mixed for 30 min. Radioactivity was measured on a microplate scintillation counter (TopCount, Packard, Meriden, Conn.). The maximum percentage transfer in the control wells (% transfer) was determined using the following equation: [formula]
The percentage of transfer relative to the control (% control) was determined in the wells containing inhibitor compounds was determined as follows: [formula]
IC50 values were then calculated from plots of % control versus concentration of inhibitor compound.

The mark [3] stands for this setting: IC50, Inhibition of CETP activity in reconstituted buffer assay.
Where [4] appears, read: IC50, Inhibition of CETP activity in human plasma assay.
[5] abbreviates: Inhibition of CETP activity in human plasma assay, read-out: IC50.
Where [6] appears, read: Inhibition of CETP activity in reconstituted buffer assay, read-out: IC50.

SMILES strings stand for the structures.

On to `OC(CN(Cc1ccc(OC(F)(F)F)cc1)c1cccc(Oc2ccccc2)c1)C(F)(F)F` (centres unmarked) [Example 63], for which the half-maximal inhibitory concentration (IC50) (commonly the point on the concentration scale where inhibition reaches its midpoint) in assay [1] (setting [3]) was found to be 3.5 µM; in assay [2] (setting [4]), 120 µM.

Consider `CC(C)(C)c1cccc(Oc2cccc(N(Cc3cccc(OC(F)(F)C(F)F)c3)CC(O)C(F)(F)F)c2)c1` (centres unmarked) [Example 252], for which the figures for the half-maximal inhibitory concentration (IC50) in assay [1] (setting [3]) and in assay [2] (setting [5]) were 0.075 µM and 3.9 µM, respectively.

`OC(CN(Cc1ccc(C(F)(F)F)cc1)c1cccc(Oc2ccccc2)c1)C(F)(F)F` (centres unmarked) [Example 150]: the values for the IC50 in assay [1] (setting [6]) and in assay [2] (setting [5]) were 1.7 µM and 80 µM, respectively.

As to `O=[N+]([O-])c1ccc(Sc2cccc(N(Cc3cccc(OC(F)(F)C(F)F)c3)CC(O)C(F)(F)F)c2)cc1` (centres unmarked) [Example 475], the 50% inhibitory concentration (IC50) in assay [1] (setting [6]) was 0.64 µM; in assay [2] (setting [5]) it was 37 µM.

For the compound `OC(CN(Cc1cccc(OC(F)(F)C(F)F)c1)c1cccc(Oc2ccc(Cl)c(F)c2)c1)C(F)(F)F` (centres unmarked) [Example 246], the IC50 was determined as 0.57 µM in assay [1] (setting [6]) and 13 µM in assay [2] (setting [5]).

Consider `CCCCOc1ccc(Oc2cccc(N(Cc3cccc(OC(F)(F)C(F)F)c3)CC(O)C(F)(F)F)c2)cc1` (centres unmarked) [Example 251], for which the values for the concentration for half-maximal inhibition (IC50) in assay [1] (setting [6]) and in assay [2] (setting [5]) were 0.49 µM and 26 µM, respectively.

For the compound `OC(CN(Cc1cccc(OC(F)(F)C(F)F)c1)c1cccc(Nc2ccc(F)cc2)c1)C(F)(F)F` (centres unmarked) [Example 293], the results for the concentration for half-maximal inhibition (IC50) in assay [1] (setting [6]) and in assay [2] (setting [5]) were 1 µM and 42 µM, respectively.

For `Cc1ccc([N+](=O)[O-])cc1Oc1cccc(N(Cc2cccc(OC(F)(F)C(F)F)c2)CC(O)C(F)(F)F)c1` (centres unmarked) [Example 447], the half-maximal inhibitory concentration (IC50) in assay [1] (setting [6]) was 9.8 µM; in assay [2] (setting [5]), greater than 50 µM.

For the compound `OC(COc1cccc(CN(CC(O)C(F)(F)F)c2cccc(Oc3ccccc3)c2)c1)C(F)(F)F` (centres unmarked) [Example 655, 3-[(3-phenoxyphenyl)[[3-(2-hydroxy-3,3,3-trifluoro-n-propoxy)phenyl]methyl]amino]-1,1,1-trifluoro-2-propanol], the results for the IC50 in assay [1] (setting [6]) and in assay [2] (setting [5]) were 3.6 µM and 48 µM, respectively.

With `CCc1cc(Oc2cccc(N(Cc3cccc(C(F)(F)C(F)(F)F)c3)CC(O)C(F)(F)F)c2)ccc1Cl` (centres unmarked) [Example 660, 3-[(4-chloro-3-ethylphenoxy)phenyl[[3-(pentafluoroethyl)phenyl]methyl]-amino]-1,1,1-trifluoro-2-propanol.], the figures for the half-maximal inhibitory concentration (IC50) in assay [1] (setting [6]) and in assay [2] (setting [5]) were 0.04 µM and 1.1 µM, respectively.

In the case of `OC(CN(Cc1cccc(C(F)(F)F)c1)c1cccc(OC(F)(F)F)c1)C(F)(F)F` (centres unmarked) [Example 688], the figures for the half-inhibitory concentration (IC50) in assay [1] (setting [6]) and in assay [2] (setting [5]) were 2.5 µM and greater than 100 µM, respectively.

As to `OC(CN(Cc1cccc(OC(F)(F)C(F)F)c1)c1cccc(OCc2ccc(F)cc2)c1)C(F)(F)F` (centres unmarked) [Example 391], the IC50 stood at 0.56 µM in assay [1] (setting [6]) and 25 µM in assay [2] (setting [5]).

As to `OC(CN(Cc1cccc(SC(F)(F)F)c1)c1cccc(Oc2ccccc2)c1)C(F)(F)F` (centres unmarked) [compound 216], the IC50 in assay [1] (setting [3]) is 0.39 µM; in assay [2] (setting [5]) it was 24 µM.

With `OC(COC(F)(F)C(F)F)CN(Cc1cccc(OC(F)(F)F)c1)c1cccc(Oc2ccccc2)c1` (centres unmarked) [Example 210], the 50% inhibitory concentration (IC50) in assay [1] (setting [6]) is 3.6 µM; in assay [2] (setting [5]), greater than 100 µM.

On to `CSc1ccc(Oc2cccc(N(Cc3cccc(OC(F)(F)C(F)F)c3)CC(O)C(F)(F)F)c2)cc1` (centres unmarked) [Example 267], for which the 50% inhibitory concentration (IC50) stood at 1 µM in assay [1] (setting [6]) and 27 µM in assay [2] (setting [5]).

Regarding `OC(CN(Cc1cccc(OC(F)(F)C(F)F)c1)c1cccc(Oc2ccc(F)c(Cl)c2)c1)C(F)(F)F` (centres unmarked) [Example 245], the 50% inhibitory concentration (IC50) is 0.21 µM in assay [1] (setting [6]) and 8.4 µM in assay [2] (setting [5]).

With `OC(CN(Cc1cccc(OC(F)(F)C(F)F)c1)c1cccc(OCc2cccc(C(F)(F)F)c2)c1)C(F)(F)F` (centres unmarked) [Example 379], the IC50 in assay [1] (setting [6]) was 0.098 µM; in assay [2] (setting [4]) it was 7.7 µM.

For the compound `Cc1ccc(COc2cccc(N(Cc3cccc(OC(F)(F)C(F)F)c3)CC(O)C(F)(F)F)c2)cc1` (centres unmarked) [Example 385], the IC50 in assay [1] (setting [6]) stood at 0.42 µM; in assay [2] (setting [5]), 29 µM.

For `N#Cc1cccc(Nc2cccc(N(Cc3cccc(OC(F)(F)C(F)F)c3)CC(O)C(F)(F)F)c2)c1` (centres unmarked) [Example 302], the IC50 in assay [1] (setting [6]) was 2.5 µM; in assay [2] (setting [5]), greater than 100 µM.

The values above are taken from US6723753B2, “Substituted n-benzyl-n-phenyl aminoalcohol compounds useful for inhibiting cholesteryl ester transfer protein activity” (Pharmacia Corporation, priority 2002, dated 2004).
